Paper PMC4965013, “Open Source Drug Discovery with the Malaria Box Compound Collection for Neglected Diseases and Beyond” (PLoS Pathogens, 2016)

Tests used:
[1] = test system: P. falciparum 3D7 trophozoites; assay: Metabolomic fingerprint profiling LC-MS; assay type: cell-based, Plasmodium falciparum; set-up: UDP-D-glucose / ADP-D-glucose: unit not given here; conditions: for Acetyllysine / N-acetyl-L-ornithine / N-carbamoyl-L-aspartate / NADPH / dAMP / dCMP / dTDP / dTMP / dTTP / dihydroorotate / orotate / DLH / DLS/SDL/SID / PD / PEE / PVNF / 3-phosphoglycerate / ADP-D-glucose / ATP / CDP / D-sedoheptulose-1/7-phosphate / FAD / GMP / NAD+ / NADP+ / Octoluse Bisphosphate / Pyroglutamic acid / UDP-D-glucose / UDP-D-glucuronate / UDP-N-acetyl-glucosamine / UDP / UMP / UTP / a-ketoglutarate / citrate/isocitrate / cytidine / dATP / dGMP/AMP / fumarate / glucose-1/6-phosphate / glycerate / guanine / guanosine / hypoxanthine / indole / inosine / nicotinate / ornithine / phosphoenolpyruvate / pyruvate / ribose-phosphate / sarcosine/alanine / sn-glycerol-3-phosphate / succinate/methylmalonic acid / uridine / xanthosine: S2 Table Metabolomics; for Acetyllysine: metabolite Acetyllysine; for N-acetyl-L-ornithine: metabolite N-acetyl-L-ornithine; for N-carbamoyl-L-aspartate: metabolite N-carbamoyl-L-aspartate; for NADPH: metabolite NADPH; for dAMP: metabolite dAMP; for dCMP: metabolite dCMP; for dTDP: metabolite dTDP; for dTMP: metabolite dTMP; for dTTP: metabolite dTTP; for dihydroorotate: metabolite dihydroorotate; for orotate: metabolite orotate; for DLH: peptide DLH; for DLS/SDL/SID: peptide DLS/SDL/SID; for PD: peptide PD; for PEE: peptide PEE; for PVNF: peptide PVNF; for 3-phosphoglycerate: metabolite 3-phosphoglycerate; for ADP-D-glucose: metabolite ADP-D-glucose; for ATP: metabolite ATP; for CDP: metabolite CDP; for CDP / D-sedoheptulose-1/7-phosphate / GMP / Octoluse Bisphosphate / UDP / UMP / UTP / citrate/isocitrate / dGMP/AMP / fumarate / glucose-1/6-phosphate / glycerate / guanine / guanosine / inosine / pyruvate / sarcosine/alanine / succinate/methylmalonic acid / uridine / xanthosine: change in metabolite level after compound treatment; for D-sedoheptulose-1/7-phosphate: metabolite D-sedoheptulose-1/7-phosphate; for FAD: metabolite FAD; for GMP: metabolite GMP; for NAD+: metabolite NAD+; for NADP+: metabolite NADP+; for Octoluse Bisphosphate: metabolite Octoluse Bisphosphate; for Pyroglutamic acid: metabolite Pyroglutamic acid; for UDP-D-glucose: metabolite UDP-D-glucose; for UDP-D-glucuronate: metabolite UDP-D-glucuronate; for UDP-N-acetyl-glucosamine: metabolite UDP-N-acetyl-glucosamine; for UDP: metabolite UDP; for UMP: metabolite UMP; for UTP: metabolite UTP; for a-ketoglutarate: metabolite a-ketoglutarate; for citrate/isocitrate: metabolite citrate/isocitrate; for cytidine: metabolite cytidine; for dATP: metabolite dATP; for dGMP/AMP: metabolite dGMP/AMP; for fumarate: metabolite fumarate; for glucose-1/6-phosphate: metabolite glucose-1/6-phosphate; for glycerate: metabolite glycerate; for guanine: metabolite guanine; for guanosine: metabolite guanosine; for hypoxanthine: metabolite hypoxanthine; for indole: metabolite indole; for inosine: metabolite inosine; for 2_3-Diphosphoglyceric acid / 4-phosphopantothenate / 6-phospho-D-gluconate / FMN / IMP / Pyrophosphate / Sedoheptoluse bisphosphate / cyclic-AMP / glutathione disulfide / lactate / myo-inositol: metabolite level change after treatment; for nicotinate: metabolite nicotinate; for ornithine: metabolite ornithine; for phosphoenolpyruvate: metabolite phosphoenolpyruvate; for pyruvate: metabolite pyruvate; for ribose-phosphate: metabolite ribose-phosphate; for sarcosine/alanine: metabolite sarcosine/alanine; for sn-glycerol-3-phosphate: metabolite sn-glycerol-3-phosphate; for succinate/methylmalonic acid: metabolite succinate/methylmalonic acid; for uridine: metabolite uridine; for xanthosine: metabolite xanthosine
P. falciparum = assay: EC50 listed in S2 Table Metabolomics (used to set the concentration tested); assay type: cell-based; conditions: Plasmodium falciparum; EC50 used for Factor_XEC50 in metabolomics; read-out: EC50_nM

For `COc1ccc(-c2c(C)nn3c(N)c(C#N)cnc23)cc1OC` [MMV396797], the Acetyllysine [1] was -1.561, the N-acetyl-L-ornithine [1] was -1.053 and the N-carbamoyl-L-aspartate [1] was 1.252. The NADPH [1] was 0.3593, the dAMP [1] was 0.5405 and the dCMP [1] was 1.351. It also gave a dTDP [1] of 0.6464, a dTMP [1] of 1.055 and a dTTP [1] of 0.1329. It also gave a dihydroorotate [1] of 0.9521, an orotate [1] of -0.1403 and a DLH [1] of -2.487. It also gave a DLS/SDL/SID [1] of -1.077, a PD [1] of -0.9589 and a PEE [1] of -1.335. For the same molecule, the PVNF [1] was -1.44, the 3-phosphoglycerate [1] was -0.332 and the ADP-D-glucose [1] was 0.000409. It also gave an ATP [1] of -0.6534, a CDP [1] of 0.6836 and a D-sedoheptulose-1/7-phosphate [1] of 0.6682. For the same molecule, the FAD [1] was 0.02733, the GMP [1] was 0.6724 and the “NAD+” value [1] was 0.9649. For the same molecule, the “NADP+” value [1] was 0.1001, the “Octoluse Bisphosphate” value [1] was -0.3618 and the Pyroglutamic acid [1] was -0.2754. The UDP-D-glucose [1] was 0.1529, the UDP-D-glucuronate [1] was 0.1151 and the UDP-N-acetyl-glucosamine [1] was 0.3642. It also gave a UDP [1] of 0.7706, a UMP [1] of 0.7638 and a UTP [1] of 0.02297. It also gave an a-ketoglutarate [1] of -0.2189, a citrate/isocitrate [1] of -0.742 and a cytidine [1] of -0.8311. For the same molecule, the dATP [1] was -0.6595, the dGMP/AMP [1] was 0.1443 and the fumarate [1] was -0.5921. It also gave a glucose-1/6-phosphate [1] of 0.3476, a glycerate [1] of -0.7107 and a guanine [1] of -0.1249. For the same molecule, the guanosine [1] was -0.2185, the hypoxanthine [1] was -0.6773 and the indole [1] was -0.01428. The inosine [1] was -0.2482, the 2_3-Diphosphoglyceric acid [1] was 0.4884 and the 4-phosphopantothenate [1] was 0.5554. The 6-phospho-D-gluconate [1] was 0.1152, the FMN [1] was 0.2278 and the IMP [1] was 0.7032. The Pyrophosphate [1] was 0.391, the Sedoheptoluse bisphosphate [1] was -0.2371 and the cyclic-AMP [1] was 0.5443. For the same molecule, the glutathione disulfide [1] was 0.05378, the lactate [1] was -0.5978 and the myo-inositol [1] was -0.8022. For the same molecule, the nicotinate [1] was 0.06441, the ornithine [1] was -0.4887 and the phosphoenolpyruvate [1] was -0.1659. The pyruvate [1] was -0.5507, the ribose-phosphate [1] was -0.3757 and the sarcosine/alanine [1] was -0.5535. For the same molecule, the sn-glycerol-3-phosphate [1] was -0.1272, the succinate/methylmalonic acid [1] was -0.001406 and the uridine [1] was -0.3835. It also gave a xanthosine [1] of -0.6585 and an EC50 (P. falciparum) of 477 nM.

Work on `Cc1ccc(Nc2nc(NCCO)c3ccccc3n2)cc1C` [MMV001038] yielded an Acetyllysine [1] of -1.736, a N-acetyl-L-ornithine [1] of -0.8338 and a N-carbamoyl-L-aspartate [1] of 2.2667. The NADPH [1] was 1.133, the dAMP [1] was 0.6638 and the dCMP [1] was -0.6324. It also gave a dTDP [1] of 0.5044, a dTMP [1] of 1.028 and a dTTP [1] of -1.24. The dihydroorotate [1] was 2.22, the orotate [1] was -0.01519 and the DLH [1] was -3.038. For the same molecule, the DLS/SDL/SID [1] was -1.162, the PD [1] was -0.2116 and the PEE [1] was -5.814. For the same molecule, the PVNF [1] was -1.547, the 3-phosphoglycerate [1] was 0.5584 and the ADP-D-glucose [1] was 0.41. The ATP [1] was -0.8212, the CDP [1] was -0.1382 and the D-sedoheptulose-1/7-phosphate [1] was 0.3347. The FAD [1] was 0.9327, the GMP [1] was 0.5554 and the “NAD+” value [1] was 0.6377. The “NADP+” value [1] was 1.018, the “Octoluse Bisphosphate” value [1] was 0.3963 and the Pyroglutamic acid [1] was -0.8623. It also gave a UDP-D-glucose [1] of 0.149, a UDP-D-glucuronate [1] of 0.1087 and a UDP-N-acetyl-glucosamine [1] of 0.4035. It also gave a UDP [1] of 0.7043, a UMP [1] of -0.2063 and a UTP [1] of -0.5445. For the same molecule, the a-ketoglutarate [1] was -0.3007, the citrate/isocitrate [1] was -0.768 and the cytidine [1] was 0.3191. The dATP [1] was -1.248, the dGMP/AMP [1] was 0.4665 and the fumarate [1] was -0.3966. It also gave a glucose-1/6-phosphate [1] of 3.518, a glycerate [1] of 0.8355 and a guanine [1] of -0.1055. The guanosine [1] was -0.4181, the hypoxanthine [1] was 0.2457 and the indole [1] was -0.2391. It also gave an inosine [1] of 0.4136, a 2_3-Diphosphoglyceric acid [1] of 0.3981 and a 4-phosphopantothenate [1] of 0.7744. It also gave a 6-phospho-D-gluconate [1] of -0.4519, an FMN [1] of 0.7846 and an IMP [1] of 0.7773. It also gave a Pyrophosphate [1] of -0.6549, a Sedoheptoluse bisphosphate [1] of 0.6681 and a cyclic-AMP [1] of 0.8549. For the same molecule, the glutathione disulfide [1] was 0.7162, the lactate [1] was 1.5312 and the myo-inositol [1] was 3.154. The nicotinate [1] was -0.4211, the ornithine [1] was -0.2093 and the phosphoenolpyruvate [1] was 0.02444. It also gave a pyruvate [1] of 0.2652, a ribose-phosphate [1] of 0.4889 and a sarcosine/alanine [1] of -0.4284. It also gave a sn-glycerol-3-phosphate [1] of 0.01718, a succinate/methylmalonic acid [1] of -0.401 and a uridine [1] of 0.3457. The xanthosine [1] was -1.776 and the EC50 (P. falciparum) was 428 nM.

For `CCOC(=O)c1c(NC(=O)c2ccccc2)sc2c(O)c(CN(CC)CC)ccc12` [MMV665831], the Acetyllysine [1] was -3.559, the N-acetyl-L-ornithine [1] was -2.775 and the N-carbamoyl-L-aspartate [1] was -1.992. The NADPH [1] was 1.923, the dAMP [1] was -1.503 and the dCMP [1] was -0.7769. It also gave a dTDP [1] of -0.143, a dTMP [1] of 0.09088 and a dTTP [1] of -0.5361. It also gave a dihydroorotate [1] of -1.759, an orotate [1] of -1.534 and a DLH [1] of -5.287. For the same molecule, the DLS/SDL/SID [1] was -4.31, the PD [1] was -4.8541 and the PEE [1] was -3.834. It also gave a PVNF [1] of -4.964, a 3-phosphoglycerate [1] of -0.2896 and an ADP-D-glucose [1] of -0.2463. The ATP [1] was 0.0783, the CDP [1] was 0.9119 and the D-sedoheptulose-1/7-phosphate [1] was 0.4987. For the same molecule, the FAD [1] was 0.1414, the GMP [1] was -0.668 and the “NAD+” value [1] was -0.0766. For the same molecule, the “NADP+” value [1] was 0.2915, the “Octoluse Bisphosphate” value [1] was -0.5945 and the Pyroglutamic acid [1] was 0.1607. The UDP-D-glucose [1] was 0.05295, the UDP-D-glucuronate [1] was 0.02399 and the UDP-N-acetyl-glucosamine [1] was -0.03093. For the same molecule, the UDP [1] was 0.469, the UMP [1] was -0.6472 and the UTP [1] was 0.04522. It also gave an a-ketoglutarate [1] of -1.141, a citrate/isocitrate [1] of 0.03995 and a cytidine [1] of 0.9734. The dATP [1] was -0.7894, the dGMP/AMP [1] was -0.1413 and the fumarate [1] was -1.268. The glucose-1/6-phosphate [1] was -0.4706, the glycerate [1] was -0.5026 and the guanine [1] was -0.4153. The guanosine [1] was -0.8776, the hypoxanthine [1] was -0.04834 and the indole [1] was -0.03305. The inosine [1] was -0.4277, the 2_3-Diphosphoglyceric acid [1] was 0.2082 and the 4-phosphopantothenate [1] was -0.594. For the same molecule, the 6-phospho-D-gluconate [1] was -0.9918, the FMN [1] was 0.1595 and the IMP [1] was -0.2597. It also gave a Pyrophosphate [1] of -0.0001746, a Sedoheptoluse bisphosphate [1] of -0.3963 and a cyclic-AMP [1] of -0.8626. For the same molecule, the glutathione disulfide [1] was -0.3472, the lactate [1] was -0.3473 and the myo-inositol [1] was -0.3976. For the same molecule, the nicotinate [1] was -0.05954, the ornithine [1] was -0.2486 and the phosphoenolpyruvate [1] was -0.1118. It also gave a pyruvate [1] of -0.4191, a ribose-phosphate [1] of -0.6703 and a sarcosine/alanine [1] of -1.233. For the same molecule, the sn-glycerol-3-phosphate [1] was -0.08824, the succinate/methylmalonic acid [1] was -0.8852 and the uridine [1] was -0.3477. For the same molecule, the xanthosine [1] was -1.069 and the EC50 (P. falciparum) was 205 nM.
